What all share (assay type): cell-based
For experiment [1], the target named is T1, human P2X7 receptor (Homo sapiens, UniProt Q99572).
T1 sequence (Q99572 1-595): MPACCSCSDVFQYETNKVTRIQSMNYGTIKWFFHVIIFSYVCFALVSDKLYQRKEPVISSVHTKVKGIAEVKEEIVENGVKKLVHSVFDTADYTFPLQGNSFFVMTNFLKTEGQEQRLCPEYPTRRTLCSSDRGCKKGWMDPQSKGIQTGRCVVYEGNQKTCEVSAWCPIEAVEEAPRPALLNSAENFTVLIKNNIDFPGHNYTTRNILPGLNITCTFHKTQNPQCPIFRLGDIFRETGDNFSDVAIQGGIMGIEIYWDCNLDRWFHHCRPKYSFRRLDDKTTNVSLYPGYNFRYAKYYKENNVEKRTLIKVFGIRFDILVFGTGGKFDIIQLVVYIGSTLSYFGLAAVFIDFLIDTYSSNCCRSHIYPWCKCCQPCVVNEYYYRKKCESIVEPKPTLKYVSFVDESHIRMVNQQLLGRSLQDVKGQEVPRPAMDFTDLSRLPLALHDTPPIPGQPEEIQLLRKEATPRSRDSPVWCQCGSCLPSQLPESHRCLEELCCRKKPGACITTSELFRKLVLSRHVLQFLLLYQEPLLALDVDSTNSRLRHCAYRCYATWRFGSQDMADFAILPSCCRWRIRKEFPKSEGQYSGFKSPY
The experiment is described as follows: Fluo-4 calcium influx and ethidium dye uptake; complete block at […]. More on the design: gene P2RX7; human P2X7 stably expressed in HEK-293 cells.

Experiment [2] addresses T1, human P2X7 receptor. As to the kind of experiment: ATP-induced ethidium dye uptake; complete block at […]. On the set-up: gene P2RX7; human P2X7 stably expressed in HEK-293 cells.
For experiment [3], the target named is T2, rat P2X7 (Rattus norvegicus, UniProt Q64663).
T2 construct: gene P2rx7; rat P2X7 stably expressed in HEK-293 cells
T2 sequence (Q64663 1-595): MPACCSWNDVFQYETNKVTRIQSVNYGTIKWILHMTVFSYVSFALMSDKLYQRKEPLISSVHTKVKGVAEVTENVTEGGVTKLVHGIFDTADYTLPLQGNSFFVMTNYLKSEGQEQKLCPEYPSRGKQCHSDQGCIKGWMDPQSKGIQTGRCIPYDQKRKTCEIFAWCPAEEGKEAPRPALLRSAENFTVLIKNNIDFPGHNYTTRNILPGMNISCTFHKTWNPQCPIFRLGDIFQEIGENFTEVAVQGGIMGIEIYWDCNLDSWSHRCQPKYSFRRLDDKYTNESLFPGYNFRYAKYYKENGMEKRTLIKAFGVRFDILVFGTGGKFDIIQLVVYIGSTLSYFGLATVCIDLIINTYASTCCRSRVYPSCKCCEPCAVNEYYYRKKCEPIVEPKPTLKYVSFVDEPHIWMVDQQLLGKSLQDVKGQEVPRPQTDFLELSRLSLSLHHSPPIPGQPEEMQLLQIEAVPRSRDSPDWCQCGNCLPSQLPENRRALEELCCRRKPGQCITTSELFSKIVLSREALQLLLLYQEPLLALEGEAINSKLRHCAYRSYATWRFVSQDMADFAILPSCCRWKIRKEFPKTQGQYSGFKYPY
The experiment is described as follows: ATP-induced ethidium dye uptake, […] inhibition at […]. The following applies: read-out: % inhibition at 2.5 mM.

The target in experiment [4] is T1, human P2X7 receptor. The experiment is described as follows: whole-cell patch clamp, Fluo-4 calcium influx and ethidium dye uptake (IC50 from dye uptake, […] ATP). On the set-up: gene P2RX7; wild-type human P2X7 stably expressed in HEK-293 cells. (Patch clamp records ionic current or voltage across a cell membrane.)

Results on three molecules are retold here after article PMC3966854, “Probenecid Blocks Human P2X7 Receptor-Induced Dye Uptake via a Pannexin-1 Independent Mechanism” (PLoS ONE, 2014).

As for `Clc1cccc(-c2nnnn2Cc2cccnc2)c1Cl` [A-438079], in experiment [1], the “Fluo-4 calcium influx and ethidium dye uptake; complete block at 10 μM” value is 10 µM.

As to `O=C1CSC(=O)N1C(CCc1ccncc1)COc1ccc(-c2cccc([N+](=O)[O-])c2)cc1` (stereo not shown) [AZ11645373], the “ATP-induced ethidium dye uptake; complete block at 10 μM” value in experiment [2] is 10 µM.

As for `CCCN(CCC)S(=O)(=O)c1ccc(C(=O)O)cc1` [PRO, Probenecid], the inhibition at 2500 µM in experiment [3] is 34%. Moreover, in experiment [4], the IC50 stood at 203 µM.

What is called inhibition is the percentage by which the read-out fell short of the control. A word on the IC50: it is the concentration at which inhibition is half-maximal.
